Assay type in all cases: cell-based
Assay [1] deals with T1, hGLP1R (Homo sapiens, UniProt P43220).
T1 construct: expressed in transfected cells; host or cells: HEK-293 cells carrying a CRE-luciferase reporter gene
In words: hGLP1R CreLuc reporter gene assay in 0.5% and 100% plasma. Put shortly:
(§1)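 Agonist EC50s came from 8-concentration curves over four decades, fitted by non-linear variable-slope regression of CRE-driven luciferase luminescence. Cells were exposed 4 h at 37 °C, in buffer with 0.5% human plasma or in 100% plasma; GIPR was expressed in CHO cells, GLP-1R and NPY2R in HEK cells.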

Assay [2] concerns the target T2, hGIPR (Homo sapiens, UniProt P48546).
T2 construct: expressed in transfected cells; host or cells: CHO cells carrying a CRE-luciferase reporter gene
T2 sequence (P48546 22-466): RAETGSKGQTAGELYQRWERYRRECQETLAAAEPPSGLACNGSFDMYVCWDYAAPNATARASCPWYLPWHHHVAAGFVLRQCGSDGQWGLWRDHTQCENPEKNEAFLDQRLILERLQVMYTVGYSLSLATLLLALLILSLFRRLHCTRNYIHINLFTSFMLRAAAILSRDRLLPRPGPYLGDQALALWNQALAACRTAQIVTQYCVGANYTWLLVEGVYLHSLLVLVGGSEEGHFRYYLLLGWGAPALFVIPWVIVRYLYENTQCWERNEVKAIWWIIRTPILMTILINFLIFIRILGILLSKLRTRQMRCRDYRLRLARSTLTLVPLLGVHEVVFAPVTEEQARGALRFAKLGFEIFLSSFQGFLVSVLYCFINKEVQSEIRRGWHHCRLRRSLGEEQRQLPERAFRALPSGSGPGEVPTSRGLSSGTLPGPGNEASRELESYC
In words: hGIPR CreLuc reporter gene assay in 0.5% and 100% plasma. Put shortly:
as §1
(A reporter such as luciferase makes a cellular process visible.)

In assay [3] the target is T3, hNPY2R (Homo sapiens, UniProt P49146).
T3 construct: expressed in transfected cells; host or cells: HEK-293 cells carrying a CRE-luciferase reporter gene
T3 sequence (P49146 1-381): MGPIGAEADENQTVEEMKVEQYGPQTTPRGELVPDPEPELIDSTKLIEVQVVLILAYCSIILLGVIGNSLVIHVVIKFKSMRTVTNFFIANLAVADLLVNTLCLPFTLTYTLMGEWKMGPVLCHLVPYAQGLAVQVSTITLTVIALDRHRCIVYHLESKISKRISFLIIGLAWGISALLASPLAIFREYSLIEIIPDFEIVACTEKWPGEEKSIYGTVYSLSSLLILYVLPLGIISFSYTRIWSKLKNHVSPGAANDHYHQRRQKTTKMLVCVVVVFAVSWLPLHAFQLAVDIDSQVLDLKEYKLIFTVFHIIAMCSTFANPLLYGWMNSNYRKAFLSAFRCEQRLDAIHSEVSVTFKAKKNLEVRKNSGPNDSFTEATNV
As to the kind of experiment: hNPY2R CreLuc reporter gene assay in 0.5% and 100% plasma. The essentials:
as §1

Where [4] appears, read: CreLuc reporter gene assay, 0.5% human plasma, read-out: hGLP1R 0.5% hP.
[5] abbreviates: CreLuc reporter gene assay, 100% human plasma, read-out: hGLP1R 100% hP.
Where [6] appears, read: CreLuc reporter gene assay, 0.5% human plasma, read-out: hGIPR 0.5% hP.
[7] abbreviates: CreLuc reporter gene assay, 100% human plasma, read-out: hGIPR 100% hP.
[8] abbreviates: CreLuc reporter gene assay, 0.5% human plasma, read-out: hNPY2R 0.5% hP.
Setting [9] is: CreLuc reporter gene assay, 100% human plasma, read-out: hNPY2R 100% hP.

Where two headings read alike, the source gives them in different places. Starred links: 1 amine or outer side, 2 acyl side, 3 side chain; linkers in the order of their positions; H or OH if unused. Non-standard residues stand in square brackets, D forms with d. Groups on a side chain read outwards from the residue. *: point of attachment. C20 diacid = O=C(O)CCCCCCCCCCCCCCCCCCC(=O)*; C18 diacid = O=C(O)CCCCCCCCCCCCCCCCC(=O)*; γGlu = O=C(O)[C@H](CCC(=O)[*:2])N[*:1]; εLys = N[C@@H](CCCCN[*:1])C(=O)[*:2]; Tle = CC(C)(C)[C@H](N)C(=O)O; AEEA = NCCOCCOCC(=O)O; Aib = CC(C)(N)C(=O)O

T1 sequence (P43220 24-463): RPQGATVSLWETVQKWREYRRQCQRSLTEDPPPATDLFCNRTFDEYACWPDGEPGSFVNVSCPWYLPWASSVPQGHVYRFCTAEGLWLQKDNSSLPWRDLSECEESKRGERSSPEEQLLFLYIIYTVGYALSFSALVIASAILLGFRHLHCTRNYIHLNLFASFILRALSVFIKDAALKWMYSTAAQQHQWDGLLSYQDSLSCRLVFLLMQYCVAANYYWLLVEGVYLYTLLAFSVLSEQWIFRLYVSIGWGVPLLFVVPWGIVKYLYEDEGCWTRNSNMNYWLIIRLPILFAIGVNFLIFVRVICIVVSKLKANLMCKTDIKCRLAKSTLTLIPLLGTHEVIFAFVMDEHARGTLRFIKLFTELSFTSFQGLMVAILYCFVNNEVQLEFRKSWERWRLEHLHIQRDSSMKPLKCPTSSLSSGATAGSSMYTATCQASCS

Consider “H-Y[Aib]EGTFTSDYSI[Aib]LEEQAQ[Aib]AFVEWLIK([εLys-γGlu-γGlu-γGlu-γGlu-γGlu-γGlu-C20 diacid])GGPSSGASLRHYYNWLTRQRY-NH2 [Compound 116, Y-Aib-E-G-T-F-T-S-D-Y-S-I-Aib-L-E-E-Q-A-Q-Aib-A-F-V-E-W-L-I-K(1,3)-GGPSSGASLRHYYNWLTRQRY-NH2.C20DA-gGlu-gGlu-gGlu-gGlu-gGlu-gGlu-eLys(1,2)]”, for which the EC50 came out at 0.14 nM in assay [1] (setting [4]); 2.48 nM in assay [1] (setting [5]); 0.43 nM in assay [2] (setting [6]); 3.01 nM in assay [2] (setting [7]); 13.5 nM in assay [3] (setting [8]); 85.7 nM in assay [3] (setting [9]).

On to “H-Y[Aib]EGTFTSDYSI[Aib]LEKQAQ[Aib]EFVEWLIK([AEEA-AEEA-γGlu-C18 diacid])GGPSEGASLRHYYNWLTRQRY-NH2 [Compound 282, Y-Aib-E-G-T-F-T-S-D-Y-S-I-Aib-L-E-K-Q-A-Q-Aib-E-F-V-E-W-L-I-K(1,3)-GGPSEGASLRHYYNWLTRQRY-NH2.C18DA-gGlu-OEG-OEG(1,2)]”, for which the EC50 in assay [1] (setting [4]) came to 0.51 nM; in assay [2] (setting [6]), 0.17 nM; in assay [2] (setting [7]) it was 1.03 nM; in assay [3] (setting [8]), 17.3 nM.

Turning to “H-Y[Aib]EGTFTSDYSI[Aib]LEKQAQ[Aib]AFIEWLIK([γGlu-γGlu-γGlu-γGlu-C20 diacid])GGPSEGASLRHYYNWLTRQRY-NH2 [Compound 283, Y-Aib-E-G-T-F-T-S-D-Y-S-I-Aib-L-E-K-Q-A-Q-Aib-A-F-I-E-W-L-I-K(1,3)-GGPSEGASLRHYYNWLTRQRY-NH2.C20DA-gGlu-gGlu-gGlu-gGlu(1,2)]”, the EC50 is 0.13 nM in assay [1] (setting [4]); 3.86 nM in assay [1] (setting [5]); 0.23 nM in assay [2] (setting [6]); 1.86 nM in assay [2] (setting [7]); 14.7 nM in assay [3] (setting [8]).

In the case of `CC[C@H](C)[C@H](NC(=O)[C@H](CC(C)C)NC(=O)[C@H](Cc1c[nH]c2ccccc12)NC(=O)[C@H](CCC(=O)O)NC(=O)[C@@H](NC(=O)[C@H](Cc1ccccc1)NC(=O)[C@H](C)NC(=O)C(C)(C)NC(=O)[C@H](CCC(N)=O)NC(=O)[C@H](C)NC(=O)[C@H](CCC(N)=O)NC(=O)[C@H](CCCCN)NC(=O)[C@H](CCC(=O)O)NC(=O)[C@H](CC(C)C)NC(=O)C(C)(C)NC(=O)[C@@H](NC(=O)[C@H](CO)NC(=O)[C@H](Cc1ccc(O)cc1)NC(=O)[C@H](CC(=O)O)NC(=O)[C@H](CO)NC(=O)[C@@H](NC(=O)[C@H](Cc1ccccc1)NC(=O)[C@@H](NC(=O)CNC(=O)[C@H](CC(=O)O)NC(=O)C(C)(C)NC(=O)[C@@H](N)Cc1ccc(O)cc1)[C@@H](C)O)[C@@H](C)O)[C@@H](C)CC)C(C)C)C(=O)N[C@@H](CCCCNC(=O)[C@@H](N)CCCCNC(=O)CC[C@H](NC(=O)CC[C@H](NC(=O)CC[C@H](NC(=O)CC[C@H](NC(=O)CC[C@H](NC(=O)CC[C@H](NC(=O)CCCCCCCCCCCCCCCCCCC(=O)O)C(=O)O)C(=O)O)C(=O)O)C(=O)O)C(=O)O)C(=O)O)C(=O)NCC(=O)NCC(=O)N1CCC[C@H]1C(=O)N[C@@H](CO)C(=O)N[C@@H](CO)C(=O)NCC(=O)N[C@@H](C)C(=O)N[C@@H](CO)C(=O)N[C@@H](CC(C)C)C(=O)N[C@@H](CCCNC(=N)N)C(=O)N[C@@H](Cc1c[nH]cn1)C(=O)N[C@@H](Cc1ccc(O)cc1)C(=O)N[C@@H](Cc1ccc(O)cc1)C(=O)N[C@@H](CC(N)=O)C(=O)N[C@@H](Cc1c[nH]c2ccccc12)C(=O)N[C@@H](CC(C)C)C(=O)N[C@H](C(=O)N[C@@H](CCCNC(=N)N)C(=O)N[C@@H](CCC(N)=O)C(=O)N[C@@H](CCCNC(=N)N)C(=O)N[C@@H](Cc1ccc(O)cc1)C(N)=O)[C@@H](C)O` [Compound 87, Y-Aib-D-G-T-F-T-S-D-Y-S-I-Aib-L-E-K-Q-A-Q-Aib-A-F-V-E-W-L-I-K(1,3)-GGPSSGASLRHYYNWLTRQRY-NH2.C20DA-gGlu-gGlu-gGlu-gGlu-gGlu-gGlu-eLys(1,2)], the EC50 in assay [1] (hGLP1R 0.5% hP) was determined as 0.08 nM; in assay [1] (hGLP1R 100% hP) it was 2 nM; in assay [2] (hGIPR 0.5% hP) it was 0.58 nM; in assay [3] (hNPY2R 0.5% hP) it was 20.7 nM.

Consider “H-Y[Aib]EGTFTSDYSI[Aib]LEKQAQ[Aib]AFVQWLIK([εLys-γGlu-γGlu-γGlu-γGlu-γGlu-C18 diacid])GGPSEPASLRHYYNWLTRQRY-NH2 [Compound 148, Y-Aib-E-G-T-F-T-S-D-Y-S-I-Aib-L-E-K-Q-A-Q-Aib-A-F-V-Q-W-L-I-K(1,3)-GGPSEPASLRHYYNWLTRQRY-NH2.C18DA-gGlu-gGlu-gGlu-gGlu-gGlu-eLys(1,2)]”, for which the EC50 amounted to 0.08 nM in assay [1] (setting [4]), 0.07 nM in assay [2] (setting [6]), 11 nM in assay [3] (setting [8]) and 21 nM in assay [3] (setting [9]).

For the compound `CC[C@H](C)[C@H](NC(=O)[C@H](CC(C)C)NC(=O)[C@H](Cc1c[nH]c2ccccc12)NC(=O)[C@H](CCC(N)=O)NC(=O)[C@@H](NC(=O)[C@H](Cc1ccccc1)NC(=O)[C@H](C)NC(=O)C(C)(C)NC(=O)[C@H](CCC(N)=O)NC(=O)[C@H](C)NC(=O)[C@H](CCC(N)=O)NC(=O)[C@H](CCCCN)NC(=O)[C@H](CCC(=O)O)NC(=O)[C@H](CC(C)C)NC(=O)C(C)(C)NC(=O)[C@@H](NC(=O)[C@H](CO)NC(=O)[C@H](Cc1ccc(O)cc1)NC(=O)[C@H](CC(=O)O)NC(=O)[C@H](CO)NC(=O)[C@@H](NC(=O)[C@H](Cc1ccccc1)NC(=O)[C@@H](NC(=O)CNC(=O)[C@H](CCC(=O)O)NC(=O)C(C)(C)NC(=O)[C@@H](N)Cc1ccc(O)cc1)[C@@H](C)O)[C@@H](C)O)[C@@H](C)CC)C(C)C)C(=O)N[C@@H](CCCCNC(=O)[C@H](CCC(=O)O)NC(=O)[C@H](CCC(=O)O)NC(=O)[C@H](CCC(=O)O)NC(=O)[C@H](CCC(=O)O)NC(=O)[C@H](CCC(=O)O)NC(=O)CCCCCCCCCCCCCCCCC(=O)O)C(=O)NCC(=O)NCC(=O)N1CCC[C@H]1C(=O)N[C@@H](CO)C(=O)N[C@@H](CCC(=O)O)C(=O)NCC(=O)N[C@@H](C)C(=O)N[C@@H](CO)C(=O)N[C@@H](CC(C)C)C(=O)N[C@@H](CCCNC(=N)N)C(=O)N[C@@H](Cc1c[nH]cn1)C(=O)N[C@@H](Cc1ccc(O)cc1)C(=O)N[C@@H](Cc1ccc(O)cc1)C(=O)N[C@@H](CC(N)=O)C(=O)N[C@@H](Cc1c[nH]c2ccccc12)C(=O)N[C@@H](CC(C)C)C(=O)N[C@H](C(=O)N[C@@H](CCCNC(=N)N)C(=O)N[C@@H](CCC(N)=O)C(=O)N[C@@H](CCCNC(=N)N)C(=O)N[C@@H](Cc1ccc(O)cc1)C(N)=O)[C@@H](C)O` [Compound 257, Y-Aib-E-G-T-F-T-S-D-Y-S-I-Aib-L-E-K-Q-A-Q-Aib-A-F-V-Q-W-L-I-K(1,3)-GGPSEGASLRHYYNWLTRQRY-NH2.C18DA-E-E-E-E-E(1,2)], the EC50 was 0.08 nM in assay [1] (setting [4]), 2.48 nM in assay [1] (setting [5]), 0.14 nM in assay [2] (setting [6]) and 16.9 nM in assay [3] (setting [8]).

For “H-Y[Aib]EGTFTSDYSI[Aib]LEKQAQ[Aib]AFVQWLIK([εLys-γGlu-γGlu-γGlu-γGlu-γGlu-C20 diacid])GGPSEGASLRHYYNWLTRQRY-NH2 [Compound 242, Y-Aib-E-G-T-F-T-S-D-Y-S-I-Aib-L-E-K-Q-A-Q-Aib-A-F-V-Q-W-L-I-K(1,3)-GGPSEGASLRHYYNWLTRQRY-NH2.C20DA-gGlu-gGlu-gGlu-gGlu-gGlu-eLys(1,2)]”, the EC50 in assay [1] (setting [4]) turned out to be 0.13 nM; in assay [2] (setting [6]) it was 0.32 nM; in assay [2] (setting [7]), 1.72 nM; in assay [3] (setting [9]) it was 28.8 nM.

For “H-Y[Aib]EGTFTSDYSI[Aib]LEKQAQ[Aib]AFVEWLIK([εLys-γGlu-γGlu-γGlu-γGlu-γGlu-γGlu-C20 diacid])GGPSSGASLR[Tle]YYNWLTRQRY-NH2 [Compound 119, Y-Aib-E-G-T-F-T-S-D-Y-S-I-Aib-L-E-K-Q-A-Q-Aib-A-F-V-E-W-L-I-K(1,3)-G-G-P-S-S-G-A-S-L-R-Tle-Y-Y-N-W-L-T-R-Q-R-Y-NH2.C20DA-gGlu-gGlu-gGlu-gGlu-gGlu-gGlu-eLys(1,2)]”, the figures for the EC50 in assay [1] (setting [4]), in assay [2] (setting [6]) and in assay [3] (setting [8]) were 0.26 nM, 0.63 nM and 23.1 nM, respectively.

The record behind these values is US20240247080A1, “GLP1/GIP/NPY2 RECEPTOR TRIPLE AGONISTS” (Boehringer Ingelheim International GmbH, priority 2022, published 2024).
